This note sets out measurements from patent publication US12297192B2, “Crystal form of pyrimidine sulfonamide compound and preparation method therefor” (WUXI BIOCITY BIOPHARMACEUTICS CO., LTD., priority 2019, dated 2025).

Data set [1] is described as follows: Pharmacokinetic evaluation in Beagle dogs. The class given is in vivo. To be noted: for Bioavailability F: 3 mg/kg. Here is the method: Male Beagle dogs were used as the test animals in this study. The LC/MS/MS method was applied to quantify the plasma drug concentrations in Beagle dogs at different time points after administration of the test compound by intravenous injection or oral gavage to evaluate the pharmacokinetic profile of the test compound in Beagle dogs.
Beagle dogs (Male, 6-15 kg, above 6 months, Beijing Marshall Biotechnology Co.)
A clear solution of the test compound was administered to the Beagle dogs by intravenous injection (overnight fasting) or oral gavage (overnight fasting). At 0 h (before administration by intravenous injection) and at 0.0833, 0.25, 0.5, 1, 2, 4, 6, 8 and 24 h after administration by intravenous injection, about 500 μL of blood was collected from peripheral blood vessels into anticoagulation tubes supplemented with EDTA-K2 (Jiangsu Kangjian Medical Supplies Co., Ltd.). At 0 hours (before administration by oral gavage) and 0.25, 0.5, 1, 2, 4, 6, 8 and 24 hours after administration by oral gavage, about 500 μL of blood was collected from peripheral blood vessels into anticoagulation tubes supplemented with EDTA-K2. The mixture in the anticoagulation tube was vortexed thoroughly at 4° C. and the plasma was then centrifuged at 13,000 rpm for 10 minutes to obtain the plasma. Blood concentrations were determined by LC/MS/MS and the relevant pharmacokinetic parameters were calculated using WinNonlin™ Version 6.3 (Pharsight, Mountain View, CA) pharmacokinetics software with a non-compartmental model linear-log trapezoidal method.

Data set [2] in a line: Pharmacokinetic evaluation in rats. Format: in vivo, SD rats. How it is done:
The animals used in this study were SD male rats. The LC/MS/MS method was applied to quantify the plasma drug concentrations in rats at different time points after administration of the test compound intravenously or orally by gavage in order to evaluate the pharmacokinetic characteristics of the test compound in rats.
Sprague Dawley (SD) rats (male, 200-300 g, 7-10 weeks old, Beijing Vital River or Shanghai SLAC).
A clear solution of the test compound was administered to SD rats by tail vein injection (overnight fasting) or oral gavage (overnight fasting). At 0 hour (before administration through tail vein injection) and 0.0833, 0.25, 0.5, 1, 2, 4, 6, 8 and 24 hours after administration through tail vein injection, 200 μL of blood was collected by jugular venipuncture into anticoagulation tubes supplemented with EDTA-K2 (Jiangsu Kangjian Medical Supplies Co., Ltd.). The mixture in the anticoagulation tube was vortexed thoroughly at 4° C. and then centrifuged at 13,000 rpm for 10 minutes to obtain the plasma. At 0 hours (before administration by oral gavage) and 0.5, 1, 2, 4, 6, 8 and 24 hours after administration by oral gavage, 200 μL of blood was collected by jugular venipuncture into anticoagulation tubes supplemented with EDTA-K2 (Jiangsu Kangjian Medical Supplies Co., Ltd.). The mixture in the anticoagulation tube was vortexed thoroughly and the plasma was then centrifuged at 13,000 rpm for 10 minutes to obtain the plasma. Blood concentrations were determined by LC/MS/MS and the relevant pharmacokinetic parameters were calculated using WinNonlin™ Version 6.3 (Pharsight, Mountain View, CA) pharmacokinetics software with a non-compartmental model linear-log trapezoidal method.

The target in data set [3] is T1, human ETA receptors (Homo sapiens, UniProt P25101).
T1 construct: endogenously expressed human ETA receptors in SK-N-MC cells; host or cells: SK-N-MC cells
T1 sequence (P25101 21-427): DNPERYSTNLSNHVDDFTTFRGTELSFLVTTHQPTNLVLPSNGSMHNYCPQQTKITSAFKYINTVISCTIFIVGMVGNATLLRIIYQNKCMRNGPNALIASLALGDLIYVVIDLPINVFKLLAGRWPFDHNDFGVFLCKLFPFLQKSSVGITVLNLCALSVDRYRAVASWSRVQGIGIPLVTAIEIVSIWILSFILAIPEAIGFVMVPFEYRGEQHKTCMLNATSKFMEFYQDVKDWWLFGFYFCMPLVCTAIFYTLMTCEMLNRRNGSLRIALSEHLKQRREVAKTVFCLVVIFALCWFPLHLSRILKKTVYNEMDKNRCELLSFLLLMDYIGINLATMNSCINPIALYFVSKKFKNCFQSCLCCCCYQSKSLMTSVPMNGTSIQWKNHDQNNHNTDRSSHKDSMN
The experiment in a line: In vitro antagonistic effect on human ETA receptors (Ca2+ fluorescence, SK-N-MC cells). The class given is cell-based. How it is done:
The antagonistic activity of the compounds on endogenously expressed human ETA receptors in SK-N-MC cells was assessed by measuring the effects of the compounds on changes in cytoplasmic Ca^2+ ion signaling induced by an agonist of human ETA receptor using a fluorescence assay. The functional activity of the ETA receptor antagonistic effect was tested at Eurofins-Cerep SA according to current standard operating procedures.
• 1. Cells were suspended in Dulbecco's modified Eagle medium solution (DMEM, Invitrogen) supplemented with 1% FCSd and then distributed at a density of 5×10^4 cells/well in 384 plates (100 μL/well). • 2. Hank's Balanced Salt Solution (HBSS, Invitrogen) supplemented with 20 mM 4-(2-hydroxyethyl) piperazine-1-ethanesulfonic acid (Hepes, Invitrogen) (pH 7.4) was mixed with the fluorescent probe (Fluo4 NW, Invitrogen) and added to each well. Equilibrated with the cells for 60 minutes at 37° C. and then for 15 min at 22° C. • 3. The assay plate was placed in a microplate reader (CellLux, PerkinElmer). DMSO solution of the test compound and the positive control in appropriate concentration or HBSS buffer was added. After 5 minutes, 1 nM endothelin-1 or HBSS buffer (basal control) was added. Then the change in fluorescence intensity was measured. The fluorescence intensity is in proportion to the Ca^2+ ion concentration of the free cytosol. • 4. […] The standard positive control was BQ-123 and several concentrations were tested in each experiment and the data was analyzed using Prism to produce a concentration-response curve to calculate the IC50 values of the compounds. • 6.

The nature of data set [4]: Hygroscopicity study of Crystal Form A. The class given is physicochemical. To be noted: 25° C., 24 hours. From the text:
Categorization in the hygroscopicity evaluation is as follows:
• 1) Two dry stoppered glass weighing bottles (50 mm external diameter, 30 mm high) were taken and kept in a desiccator with a saturated solution of ammonium chloride in the lower part. The weighing bottles were left open.

Values joined by “and” are separate entries in the source; they are usually repeats but may differ in a detail not shown here. Identical values can stand only once.

On to `COCCNS(=O)(=O)Nc1ncnc(OCCOc2ncc(Br)cn2)c1-c1ccc2c(c1)OCO2` [Compound of formula (I)], for which the “Area under the drug concentration-time curve” value in data set [1] (intravenous injection 1 mg/kg) worked out at 7.56 µM·h; in data set [1] (oral 3 mg/kg), 33.40 µM·h; in data set [2] (intravenous injection 2 mg/kg) it was 16.09 µM·h; in data set [2] (oral 10 mg/kg), 60.22 µM·h. The Peak concentration in data set [1] (oral 3 mg/kg) is 12.75 µM; in data set [2] (oral 10 mg/kg), 31.99 µM. For the same compound, the values for the Peak time in data set [1] (oral 3 mg/kg) and in data set [2] (oral 10 mg/kg) were 0.38 h and 0.25 h, respectively. For the same compound, the “Bioavailability F” value in data set [1] (oral 3 mg/kg) is 147%; in data set [1] (oral 3 mg/kg, listed as compound of formula (I)), over 50%. The Plasma clearance in data set [2] (intravenous injection 2 mg/kg, 2 mg/kg) turned out to be 0.223 L/h/kg. This compound displayed a Bioavailability in data set [2] (oral 10 mg/kg, 10 mg/kg) of 74.9%.

By IC50 is commonly meant the concentration that inhibits the measured activity by half. Low readings indicate greater potency, high ones weaker potency. As for `COCCNS(=O)(=O)Nc1ncnc(OCCOc2ncc(Br)cn2)c1-c1ccc2c(c1)OCO2`, in data set [3], the “In vitro antagonistic activity against the human ETA receptor (in words)” value is “very high” and the “Selectivity for ETA over ETB” value is reported as 20,000 fold. In addition, the IC50 in data set [3] (SK-N-MC cells, 1 nM endothelin-1) came to 1.6 nM. Moreover, the “ETA/ETB Selectivity” value in data set [3] (table value) stood at 20000. The Hygroscopicity categorization entry in data set [4] was “non- or almost non-hygroscopic”. For the same compound, the “Moisture-absorption weight gain, Mean (%)” value in data set [4] (mean of two samples, desiccator with saturated ammonium chloride solution) was found to be 0.075%. The “Weight gain percentage (%)” value in data set [4] (single sample, desiccator with saturated ammonium chloride solution) was 0.11% and 0.04%.
